# Results from PMC3688708 (PLoS ONE, 2013).
# Where a name gives a salt, the structure may show the parent alone. Read-outs that look alike come from different tables or passages of the source.
# How the values were obtained:
# [1] = target: T1, PA63-channel (Bacillus anthracis, UniProt P13423); assay: biochemical; type: binding
# [2] = target: T1, PA63-channel; assay: biochemical; type: binding; remark: listed apart in the source
# [3] = tested on: J774A.1 macrophages; type: cell-based; settings: for amount of lysed cells (LF-induced cell lysis after acidic pulse): pH 5
# [4] = tested on: J774A.1 cells; type: cell-based
# [5] = tested on: J774A.1 cells; settings: 100 µM
# [6] = target: T1, PA63-channel; settings: cited from earlier work
# [7] = target: T1, PA63-channel; settings: cited from earlier work; remark: listed apart in the source
# [8] = read-out: Half saturation constant KS, pH 6
# T1 sequence (P13423 197-764 limits assumed): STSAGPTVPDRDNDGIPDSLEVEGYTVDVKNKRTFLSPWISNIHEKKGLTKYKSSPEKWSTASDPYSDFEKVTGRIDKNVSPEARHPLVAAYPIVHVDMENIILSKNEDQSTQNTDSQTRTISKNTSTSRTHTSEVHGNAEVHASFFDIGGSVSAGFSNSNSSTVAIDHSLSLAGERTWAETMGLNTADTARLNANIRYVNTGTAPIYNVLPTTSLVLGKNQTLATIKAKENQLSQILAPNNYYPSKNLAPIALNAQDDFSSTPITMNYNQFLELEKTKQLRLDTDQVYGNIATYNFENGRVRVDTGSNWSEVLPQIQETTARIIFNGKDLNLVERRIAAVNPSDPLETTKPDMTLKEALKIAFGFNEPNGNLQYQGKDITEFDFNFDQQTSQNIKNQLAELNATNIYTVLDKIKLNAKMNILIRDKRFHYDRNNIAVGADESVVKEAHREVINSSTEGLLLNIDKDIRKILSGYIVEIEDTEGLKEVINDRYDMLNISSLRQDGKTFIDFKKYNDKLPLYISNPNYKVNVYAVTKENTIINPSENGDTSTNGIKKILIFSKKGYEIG
compound,measurement,setting,value
"1-(4-chlorophenyl)-2-(4-bromophenyl)imidazo[1,2-a]pyridinium tetrafluoroborate [HA1568]",K*,[1],"478,000 L/mol"
same,Stability constant K,[1]; pH 6,"478,000 L/mol"
same,Kd,"[1]; pH 6, read-out: Half saturation constant KS",2.7 µM
same,off-rate k-1,[2],260 s⁻¹
same,on-rate constant k1,[2],1.3e+08 M⁻¹ s⁻¹
same,K (stability constant from ratio k1/k-1),[2]; pH 6,"511,000 L/mol"
same,k1 (on-rate constant),[2]; pH 6,1.3×10^8 L/(molxs)
same,k-1 (off-rate constant),[2]; pH 6,260 s⁻¹
same,Kd,"[2]; pH 6, read-out: KS",2 µM
same,viability of J774A.1 cells by MTS-assay after acidic shift with PA63/LF,[3],protective effect
same,amount of lysed cells (LF-induced cell lysis after acidic pulse),[3],significantly reduced
same,lethal toxin-treated cells that survived in the presence of the substance,[4],about 80%
same,protection from lysis by PA63/LF in the medium,[4],protected
same,cell viability (MTS assay),[5]; 24 h,no effect on cell viability
"O=[N+]([O-])c1cccc(-n2c(-c3ccc(Br)cc3)c[n+]3ccccc23)c1 (as salt: bromide) [HA1495, 1-(3-nitrophenyl)-2-(4-bromophenyl)imidazo[1,2-a]pyridinium bromide]",melting point,,176 to 177 °C
CCN(CC)CCCC(C)Nc1ccnc2cc(Cl)ccc12 (stereo not shown) [Chloroquine],K*,[6],"676,000 L/mol"
same,Stability constant K,[6]; pH 6,"676,000 L/mol"
same,Kd,[6]; [8],1.5 µM
same,Kd,[6]; read-out: Half saturation constant Ks,1.43 µM
same,K (stability constant from ratio k1/k-1),[7],"1,030,000 L/mol"
same,k1 (on-rate constant),[7],3.6×10^8 L/(molxs)
same,k-1 (off-rate constant),[7],350 s⁻¹
same,Kd,[7]; read-out: KS,0.97 µM
"O=[N+]([O-])c1ccc(-c2c[n+]3ccccc3n2-c2ccc(O)cc2)cc1 [HA1383, 1-(4-hydroxyphenyl)-2-(4-nitrophenyl)imidazo[1,2-a]pyridinium tetrafluoroborate]",K (Lineweaver-Burke plot),[1],"740,000 1/M"
same,K*,[1],"749,000 L/mol"
same,Kd,[1]; Half saturation constant KS,1.3 µM
same,Kd,[1]; Half saturation constant Ks,1.34 µM
same,Kd,[2],1.8 µM
same,off-rate k-1,[2],352 s⁻¹
same,K (stability constant from ratio k1/k-1),[2]; pH 6,"560,000 L/mol"
same,k1 (on-rate constant),[2]; pH 6,2.1×10^8 L/(molxs)
same,k-1 (off-rate constant),[2]; pH 6,370 s⁻¹
same,amount of lysed cells (LF-induced cell lysis after acidic pulse),[3],significantly reduced
same,protection from lysis by PA63/LF in the medium,[4],moderate inhibitory effect
same,melting point,,171 to 173 °C
same,cell viability (MTS assay),[5]; 7 h,no effect on cell viability
same,cell viability (MTS assay),[5]; 24 h,slightly decreased
"O=[N+]([O-])c1cccc(-n2c(-c3ccc(Br)cc3)c[n+]3ccccc23)c1 [HA1495, 1-(3-nitrophenyl)-2-(4-bromophenyl)imidazo[1,2-a]pyridinium bromide]",Kd,[1]; Half saturation constant KS,3.6 µM
same,Stability constant K,[1]; pH 6,"274,000 L/mol"
same,amount of lysed cells (LF-induced cell lysis after acidic pulse),[3],significantly reduced
same,protection from lysis by PA63/LF in the medium,[4],moderate inhibitory effect
same,cell viability (MTS assay),[5]; 24 h,no effect on cell viability
O=c1[nH]c2cccc[n+]2c2ccccc12 [HA 47],Stability constant K,[1]; pH 6,500 L/mol
same,Kd,[1]; [8],1990 µM
Brc1ccc(-c2csc3cccc[n+]23)cc1 [HA 112],Kd,[1]; Half saturation constant KS,57 µM
same,Stability constant K,[1]; pH 6,"18,500 L/mol"
Clc1ccc(OCn2cc[n+]3ccccc23)c(Cl)c1 [HA 486],K*,[1],"38,000 L/mol"
same,Kd,[1]; Half saturation constant KS,27 µM
same,Stability constant K,[1]; pH 6,"38,000 L/mol"
same,Kd,[2],32 µM
same,off-rate k-1,[2],"3,500 1/s"
same,on-rate constant k1,[2],1.2e+08 M⁻¹ s⁻¹
same,K (stability constant from ratio k1/k-1),[2]; pH 6,"34,000 L/mol"
same,k1 (on-rate constant),[2]; pH 6,1.2×10^8 L/(molxs)
same,k-1 (off-rate constant),[2]; pH 6,"3,500 1/s"
Clc1cc(Cl)c(-n2nnc3cccc[n+]32)c(Cl)c1 [HA 728],Kd,[1]; Half saturation constant KS,85 µM
same,Stability constant K,[1]; pH 6,"11,800 L/mol"
Clc1ccc(OCn2cn[n+]3ccccc23)c(Cl)c1 [HA 766],Kd,[1]; Half saturation constant KS,36 µM
same,Stability constant K,[1]; pH 6,"29,400 L/mol"
Cn1c(COc2ccc(Cl)cc2)n[n+]2ccccc12 [HA 1196],Kd,[1]; Half saturation constant KS,260 µM
same,Stability constant K,[1]; pH 6,"3,800 L/mol"
COc1ccc([N+](=O)[O-])cc1-n1nnc2cccc[n+]21 [HA 1212],Stability constant K,[1]; pH 6,"7,000 L/mol"
same,Kd,[1]; [8],150 µM
Clc1ccc(-n2nnc3ccc4ccccc4[n+]32)c(Cl)c1 [HA 1221],Kd,[1]; Half saturation constant KS,170 µM
same,Stability constant K,[1]; pH 6,"6,000 L/mol"
O=C(C[n+]1ccccc1Cl)c1ccc([N+](=O)[O-])cc1 [HA 1371],Kd,[1]; Half saturation constant KS,310 µM
same,Stability constant K,[1]; pH 6,"3,200 L/mol"
CCOC(=O)c1ccc(-n2c(-c3ccc(Br)cc3)c[n+]3cccc(O)c23)cc1 [HA 1504],Kd,[1]; Half saturation constant KS,12 µM
same,Stability constant K,[1]; pH 6,"82,900 L/mol"
O=c1c2ccccc2[n+]2ccccc2n1Cc1cccc2ccccc12 [HA 1882],Kd,[1]; Half saturation constant KS,130 µM
same,Stability constant K,[1]; pH 6,"7,900 L/mol"
COc1ccc(-n2c(=S)n(-c3ccc([N+](=O)[O-])cc3)c3cccc[n+]32)cc1 [HA 1885],Kd,[1]; Half saturation constant KS,110 µM
same,Stability constant K,[1]; pH 6,"10,800 L/mol"
